Experimental data: paper PMC7917659, “Selective Cytotoxicity of Complexes with N,N,N-Donor Dipodal Ligand in Tumor Cells” (International Journal of Molecular Sciences, 2021)
Entries after “also recorded” stand apart in the source; their conditions may differ. Like-named read-outs stand apart in the source and are kept apart here.

Tests used:
CHO-K1 cells [1] = test: Trypan blue exclusion test, noncancerous cells; type: cell-based; conditions: CHO-K1, 50 µM/L, 24 h exposure, p < 0.05 vs. control
Method: (§1) CHO-K1 and HepG2 cells were seeded into 6-well plates (Sarstedt, Numbrecht, Germany) at a density of 2 × 10^4 cells/well and then incubated for 24 h. The cell monolayers were washed with PBS solution (Sigma-Aldrich) and medium in each well was replaced with a new one, with addition of 50 µM/L of tested compound. Then, the cells were incubated in standard conditions for 24, 48 or 72 h. The cells cultured in the medium with addition of 1% v/v DMSO (Sigma-Aldrich) were positive controls (100% of growth). After incubation, the cells were detached using Trypsin-EDTA solution (Life Technologies) and suspended in buffered PBS (Sigma-Aldrich). Trypan Blue Exclusion dye (0.4% v/v, Sigma-Aldrich, Germany) was added to each cell culture and samples were kept at room temperature for 5 min. Then, the numbers of live cells (unstained) and dead cells (blue) in each population exposed to tested chemicals/dissolvent were measured with an automatic cell counter.

Hep G2 cells [2] = test: Apoptosis and necrosis detection by flow cytometry, tumour cells; type: cell-based; conditions: Hep G2, 50 µM/L, 24 h, Annexin V/EthD-III flow cytometry
Method: (§2) For flow cytometry analyses, CHO-K1 and Hep G2 cells were plated in triplicates into 6-well plates (Sarstedt) at a density of 2 × 10^4 cells per well. The cells were treated for 24 h with tested complexes/comparator salts at concentration of 50 µM/L. Control cells were exposed to DMSO (1% v/v)for 24 h. Then, the cells were detached using Trypsin-EDTA solution, washed with buffered PBS (Lonza, Walkersville, MD, USA), centrifuged at 350× g for 5 min and suspended in binding buffer. Flow cytometry analysis was performed according to the manufacturer’s instructions (Biotium, Hayward, CA, USA). Fluorescent dyes, 488-AnnexinV (excitation maximum at 490 nm/emission maximum at 515 nm) and/or Ethidium homodimer (EthD-III; excitation maximum at 528 nm/emission maximum at 617 nm) were added to cell suspensions. To correct discrimination between cells and debris, SYTO 41 Blue Fluorescent Nucleic Acid Stain was used (excitation maximum at […]). The cells were incubated in dark for 15 min with appropriate dye/dyes and analysed using flow cytometer FACSCanto10C with BD FACSDiva 8.1 System Software (BD Biosciences Immunocytometry Systems, San Jose, CA, USA). The cells were gated according to forward (FSC), side scatter (SSC) and fluorescence parameters (FITC channel was used for 488-AnnexinV and Texas Red channel was used for EthD-III). The results are given as the percentage of apoptotic or necrotic cells of total counted cells.

Hep G2 cells [3] = test: Antiproliferative MTT assay, tumour cells; type: cell-based; conditions: for IC50: MTT assay, 72 h exposure, M ± SD, n = 3, read-out: IC50 for Cancer HEP G2 Cells
HepG2 cells [4] = test: Trypan blue exclusion test, tumour cells; type: cell-based; conditions: HepG2, 50 µM/L, p < 0.01 vs. control; for Viable cells vs. control (trypan blue exclusion): 24 h exposure; for Cytotoxicity / cell viability vs. control (trypan blue exclusion): 72 h exposure
Method: as §1

vimentin (Vim) mRNA = test: Real-Time PCR (qPCR) gene expression in Hep G2 cells, vimentin; type: cell-based, human; conditions: Hep G2, 50 μM/L, 24 h, normalized to GAPDH
Method: (§3) Hep G2 cells were used to establish cell cultures (2 × 10^4 cells/well). After 24 h of incubation with chemicals at concentration of 50 µM/L or with 1% v/v DMSO (control), the cells were suspended in RL buffer (EURx, Gdansk, Poland) and the total RNA was extracted using Universal RNA purification Kit (EURx, Gdansk, Poland), according to the manufacturer’s protocol. For cDNA synthesis, MMLV reverse transcriptase (Promega, Madison, WI, USA) was used. The reverse transcription reaction was performed with ProFlex PCR System (Applied Biosystems, Foster City, CA, USA). The QuantStudio 7 Flex (Applied Biosystems, Foster City, CA, USA) was employed for the real-time PCR (qPCR). The following Taq-Man human probes (Applied Biosystems) were used for qPCR reaction: VEGFA (Hs00173626_m1), VIM (001855284_m1), MMP-2 (Hs00234422_m1), MMP-9 (Hs00234579_m1) and GAPDH (Hs99999905_m1). Blank qPCR Master Mix (EURx) was used according to the manufacturer’s instructions. Expression data were normalized on the mean housekeeping gene (GAPDH) as a reference. mRNA expressions were obtained with the 2^−ΔΔCt method and relative expression values were presented, as previously published.

[5] = test system: vascular endothelial growth factor a (VEGFa) mRNA; test: Real-Time PCR (qPCR) gene expression in Hep G2 cells, VEGFa; type: cell-based, human; conditions: Hep G2, 50 μM/L, 24 h, normalized to GAPDH
Method: as §3

CHO-K1 cells [6] = test: Antiproliferative MTT assay, noncancerous cells; type: cell-based; conditions: 72 h exposure, M ± SD, n = 3
CHO-K1 cells [7] = test: Apoptosis and necrosis detection by flow cytometry, noncancerous cells; type: cell-based; conditions: CHO-K1, 50 µM/L, 24 h, Annexin V/EthD-III flow cytometry
Method: as §2

[8] = test system: Glutathione Peroxidase (GPx); test: Extracellular glutathione peroxidase activity in CHO-K1 culture medium; type: cell-based
Method: (§4) Glutathione peroxidase (GPx) activity was assayed spectrophotometrically in culture medium and enzyme function against reactive oxygen species was investigated according to Adachi et al., Comhair et al. and Howie et al. with modification of Zagrodzki, using hydrogen peroxide (H2O2) as a substrate. For experiment, cell cultures of CHO-K1 and Hep G2 cells were established with initial density of the cells as 2 × 10^4 cells/well. Then, the cells were exposed to 50 µM/L of each chemical for 24 h (control cells were incubated with 1% v/v of DMSO) and cell media were collected. Briefly, the samples were incubated with mixture of sodium azide, glutathione reductase, glutathione, reduced β-nicotinamide adenine dinucleotide phosphate (NADPH) and sodium phosphate (pH 7.6) for 2 min at 25 °C and the reaction was initiated by the addition of H2O2. NADPH was converted to NADP and the amount of the product was proportional to GPx activity. The decrease in absorbance at 340 nm over 3 min was recorded using a microplate reader Infinite M200 Pro, Tecan, Austria. The mean value was calculated and expressed as U/L of the cell culture medium.

HepG2 cells [9] = test: Cell growth assessment (cell counting), tumour cells; type: cell-based; conditions: HepG2, 50 µM/L, 72 h incubation
Method: (§5) For experiments, the cells were seeded at low density (3 × 10^3/mL) into the 6-well plates (Sarstedt, Numbrecht, Germany) and kept for 24 h. Then, the medium was replaced for new one, containing 50 µM/L of tested compound or 1% v/v of DMSO (control). The time points of incubations were set at 24, 48 or 72 h. At the end of each experiment, the cells were gently detached with Trypsin-EDTA solution (Life Technologies), suspended with appropriate growth medium with addition of 10% v/v FBS and centrifuged at 350× g for 5 min. Finally, the cells were suspended in buffered PBS (Sigma-Aldrich) and counted.

[10] = test system: matrix metalloproteinase-9 (MMP-9) mRNA; test: Real-Time PCR (qPCR) gene expression in Hep G2 cells, MMP-9; type: cell-based, human
Method: as §3

[11] = test system: Glutathione Peroxidase (GPx); test: Extracellular glutathione peroxidase activity in Hep G2 culture medium; type: cell-based; conditions: HepG2 culture medium, 50 μM/L, 24 h
Method: as §4

CHO-K1 cells [12] = conditions: read-out: IC50 for Noncancerous CHO-K1 Cells, cited from earlier work
[13] = test system: matrix metalloproteinase-2 (MMP-2) mRNA; test: Real-Time PCR (qPCR) gene expression in Hep G2 cells, MMP-2; type: cell-based, human
Method: as §3

CHO-K1 cells [14] = test: Cell growth assessment (cell counting), noncancerous cells; type: cell-based; conditions: CHO-K1, 50 µM/L, 72 h incubation
Method: as §5

Hep G2 cells [15] = test system: Hep G2 cells; set-up: method as in doi:10.1039/C6RA06439F; conditions: read-out: IC50 for Cancer HEP G2 Cells, cited from earlier work
[16] = CHO-K1 culture medium, 50 μM/L, 24 h
[17] = Hep G2, 50 μM/L, 24 h, normalized to GAPDH
[18] = MTT assay, 72 h exposure, M ± SD

Compound | Viable cells vs. control (trypan blue exclusion) (CHO-K1 cells [1]) | Necrosis (Hep G2 cells [2]) | IC50 (Hep G2 cells [3]) [µM] | Antiproliferative Index IC50 CHO-K1/IC50 HEP G2 (Hep G2 cells [3]; ratio of MTT IC50 values, 72 h) | Viable cells vs. control (trypan blue exclusion) (HepG2 cells [4]) | Cytotoxicity / cell viability vs. control (trypan blue exclusion) (HepG2 cells [4]) | Vim mRNA expression vs. control (vimentin (Vim) mRNA) | VEGFa mRNA expression vs. control [5] | IC50 (CHO-K1 cells [6]) [µM] | Cell death (apoptosis/necrosis) (CHO-K1 cells [7]) | GPx activity vs. control [8, 16] | MMP-9 mRNA expression vs. control [10, 17] | GPx activity vs. control [11] | Apoptosis (Hep G2 cells [2]) | MMP-2 mRNA expression vs. control [13, 17] | Antiproliferative Index IC50 CHO-K1/IC50 HEP G2 (Hep G2 cells [3]) | other results
CO.Cc1cc(C)n(CNCn2nc(C)cc2C)n1.Cc1cc(C)n(CNCn2nc(C)cc2C)n1.[Co+2].[I-].[I-] [Complex 1, [Co(L^D)2]I2∙CH3OH] | statistically significant decrease in viable cells | caused mainly necrotic cell death | 22 ± 4 | 5.5 | statistically significant decrease in viable cells | statistically significant toxic effect; also recorded: greatest decrease in Hep G2 cell viability | decreased Vim expression | significantly hampered VEGFa expression | 122 ± 10 | minor | elevated the enzyme activity |  |  |  |  |  | Cell growth vs. control (HepG2 cells [9]): greatest inhibitory effect
O=S(=O)([O-])[O-].[O]=[V+2] [VOSO4, reference compound] |  |  | 75.6 ± 8 | 1.3 |  |  |  |  |  |  |  | did not exert any effect | elevated the enzyme activity | much weaker than complex 3 | did not exert any effect |  | IC50 (CHO-K1 cells [12]; [18]): 98.3 ± 9 µM
Cc1cc(C)n(CNCn2nc(C)cc2C)n1.[Co+2].[N-]=C=S.[N-]=C=S [Complex 2, [CoL^D(NCS)2]] | statistically significant decrease in viable cells | caused mainly necrotic cell death | 38.2 ± 5 |  | statistically significant decrease in viable cells | statistically significant toxic effect |  | significantly hampered VEGFa expression | 268 ± 15 | minor | elevated the enzyme activity |  |  |  |  | 7.0 | Cell growth vs. control (CHO-K1 cells [14]): lowest inhibitory potency
N.N.[Cl][Pt][Cl] [Cisplatin, cisplatin, reference compound] |  |  |  | 0.9 |  |  |  |  | 19.1 ± 2 |  |  |  |  |  |  |  | IC50 (Hep G2 cells [15]; [18]): 21.3 ± 2 µM
Cc1cc(C)n(CNCn2nc(C)cc2C)n1.Cc1ccccc1.[N-]=C=S.[N-]=C=S.[O]=[V+2] [Complex 3, [VOL^D(NCS)2]∙C6H5CH3] | statistically significant decrease in viable cells |  | 45.6 ± 5 | 2.7 | statistically significant decrease in viable cells | statistically significant toxic effect | decreased Vim expression | significantly hampered VEGFa expression | 123 ± 3 | minor | did not disturb antioxidant enzyme activity | greatest inhibitory effect | decreased GPx activity | most active promotor of apoptosis | greatest inhibitory effect |  | 
[Cl-].[Cl-].[Co+2] [CoCl2] |  |  |  |  |  |  |  |  |  |  |  |  |  |  |  | 1.1 | MMP-9 mRNA expression vs. control [10]: did not changed transcript level for MMP-9; IC50 (Hep G2 cells [15]): 160 µM; IC50 (CHO-K1 cells [12]): 176 µM; MMP-2 mRNA expression vs. control [13]: decreased mRNA for MMP-2; GPx activity vs. control [8]: did not exert any effect
